Source: US20070082858A1, “Methods and compositions for the prevention of toxic side effects of aminoglycoside medications” (priority 2004, published 2007)

Experiments:
MDCK cells [1] = assay: GTTR uptake into MDCK cells under TRPV1 agonists/antagonists, cation channel blockers, cations and pH (30-60 seconds, 20° C., FATX fixation, confocal imaging); settings: 0.5 or 5 mM La^+++ in HBSS pH 7.3, 30 seconds
Description: MDCK cells were used as a model system to test regulation of GTTR uptake by conditions known to produce or modify a cation current through the TRPV1 channel. Conditions tested were varying extracellular calcium concentrations, pH, specific agonists, specific antagonists, and the non-specific cation channel blocker Ruthenium Red. In addition, we pre-mixed PIP2 with GTTR to determine whether that anionic phospholipid, known to bind gentamicin, would alter GTTR uptake. All these assays were done at room temperature (20° C.), for 30 or 60 seconds, and using doses of GTTR of 5 to 10 μg/ml, which are far below the typical therapeutic level of <300 μg/ml. Buffers used for treatment were as described for each experiment. Cells were quickly washed to replace culture medium with treatment buffer, treated as indicated, washed again after treatment, fixed immediately with 4% formaldehyde and 0.5% Triton X-100 (FATX), and washed prior to imaging.
Methods: Cells were seeded into 8-well coverglass chambers at 3000 cells/well and grown for 5 days.
Cells were washed three times with the buffer to be used in the particular experiment, treated with GTTR and experimental variable for 30 or 60 seconds at 20° C., precluding endocytosis. Following treatment, cells were rinsed three times with buffer, then fixed and delipidated with 4% formaldehyde plus 0.5% Triton X-100 (FATX) for 45 minutes. Following fixation, cells were rinsed with PBS (Invitrogen, CA) for at least 4-6 times, or until foaming in the suction pipette ceased. In contrast to previous experiments, no FBS was present in the treatment media, allowing for more rapid uptake of the antibiotic-based GTTR.
MDCK cells were washed with Hank's buffered salt solution (HBSS; Invitrogen, CA), then placed into buffers of varying potassium concentrations. HBSS was mixed with equi-osmolar KCl/HBSS to produce the required K^+ concentrations. Cells were treated with 1 μg/mL GTTR for 1 minute, then washed and fixed as described above.
Cells were washed with PBS (Invitrogen, CA), then placed into buffers containing varying concentrations of calcium, obtained by mixing HBSS with equimolar CaCl2, each at pH 7.3. Cells were treated with 5 μg/mL of GTTR for 30 seconds, then washed and fixed as above.
Cells were washed with saline, then treated with 5 μg/mL of GTTR in saline buffers of varying pH for 30 seconds, then washed and fixed as above. Sodium hydroxide and hydrochloric acid were used to alter pH. These experiments were performed in three different saline buffers: (i) PBS (no calcium), (ii) a mixture of […] for a final calcium concentration of 0.32 mM, and (iii) a mixture of three parts PBS to one part HBSS for a final calcium concentration of 0.97 mM.
Cells were washed three times with Ca^++-free saline (0.9% NaCl), then treated with 5 μg/mL GTTR and one of the following for 30 seconds: TRPV1 agonists (resiniferatoxin [RTX]; or anandamide [AND]; Alexis Biochemicals, San Diego, Calif.); or antagonists (iodo-RTX, or SB 366791; Tocris, Ellisville, Mo.). Cells were then washed in saline and fixed as above.
Cells were washed three times with Ca^++-free 0.9% NaCl, then treated with 5 μg/mL GTTR and one of the following for 30 seconds: 100 μM Ruthenium Red, 100 μM Ruthenium Red plus one of the TRPV1 agonists or antagonists described above; or lanthanum (La^+++) at 0.5 or 5 mM.

MDCK cells [2] = assay: Gentamicin immunolabeling of MDCK cells incubated with unlabeled gentamicin and La^+++; assay type: cell-based, canine; settings: 0.05, 0.5 and 5 mM La^+++, unlabeled gentamicin 30 seconds
Method: […] Cells were rinsed twice with PBS, fixed with 4% FA, then permeabilized with ice-cold methanol for 5 minutes, and rinsed 3 times with PBS, as described previously (Steyger et al., 2003). Cells were immunoblocked in 10% goat serum in PBS for 30 minutes, and then incubated with 50 μg/mL rabbit anti-gentamicin IgG (American Quaalex, San Clemente, Calif.) for 1 hour. After washing with 1% goat serum in PBS, cells were further incubated with 20 μg/mL Alexa-488-conjugated goat-anti-rabbit IgG antisera (Molecular Probes, Eugene, Oreg.) for 45 minutes, washed, post-fixed with 4% FA for 15 minutes, and washed again. For immunocytochemical controls, the primary IgG were omitted, or adsorbed with excess gentamicin (3 mg/mL) for 30 minutes prior to addition to cells. All wells were imaged using confocal microscopy.

MDCK kidney cell line = assay: Fluorescent microplate assay quantifying GTTR uptake; assay type: cell-based, canine; settings: 37° C. for two hours or room temperature for ten minutes
Description: A fluorescent microplate assay was developed using the MDCK kidney cell line to quantify the modulation of GTTR uptake by agonists/antagonists of the TRVP1 channel (pH, Ca^2+, RTX, and iodo-RTX).

[3] = test system: bullfrog saccular explants; assay: GTTR labeling of bullfrog saccular explants in vitro (specificity, Example 6); assay type: cell-based, Rana catesbeiana; settings: 300 μg/ml GTTR plus 40-fold excess unconjugated GT (12 mg/ml), 30 minutes
Method: Gentamicin sulfate (Sigma; 50 mg/ml in K2CO3, pH 9) and succinimidyl esters of Texas Red (Molecular Probes; 2 mg/ml in dimethyl formamide) were agitated together overnight to produce a gentamicin-Texas red conjugate (GTTR). Typically, 4.4 ml of 50 mg/ml (final volume) gentamicin sulfate (GT) was mixed with 0.6 ml of 2 mg/ml Texas Red esters (TR) to produce an approximately 300:1 molar ratio of GT:GTTR. A high ratio of free gentamicin to TR esters ensures a minimum of unbound TR molecules, and a binding ratio of 1 TR molecule to 1 GT molecule (Sandoval et al. 1998). Gentamicin sulfate has three isoforms with molecular weights of […], (C2) 463.5, and (C1a) 477.6. Texas Red succinimidyl esters have a molecular weight of 817. […]
For confocal microscopy, excised saccular explants were individually pre-loaded (for 40 minutes) with 50 μM MitoTracker, 50 nM Lysotracker Green, 1 μM NBD-ceramide and 1 μM ERtracker (Molecular Probes) in Wolfe-Quimby amphibian culture media to label lysosomes, Golgi bodies and endoplasmic reticulum, respectively, prior to incubation with 300 μg/ml GT/GTTR for 2 hours. […] For immunocytochemistry of gentamicin, explants were incubated with 300 μg/ml unconjugated gentamicin for 30 minutes or 2 hours, fixed, ice-cold acetone-permeabilized, and processed for indirect fluorescence immunocytochemistry. […]

MDCK cells [4] = assay: GTTR uptake, distribution and saturability in MDCK cells (2 hours); assay type: cell-based, canine
Method: MDCK cells were treated with 1 μg/ml purified GTTR for […] in complete medium at 37° C., then washed 3× with complete medium.
(§1) Both OK and MDCK cells were used in these studies. Both cell lines were treated with GTTR at 1 μg/ml in complete culture medium for two hours at either 37° C. or over ice. These cells were also treated with a dose range of 0 to 4000 μg/ml of unlabeled GT. Cells were washed and imaged live, then fixed with FATX, and washed again with buffer prior to re-imaging (as in FIG. 6, A3). […] Thus, cytoplasmic, but not endosomal, uptake of GTTR was saturable.
(§2) GTTR treatment: Subconfluent MDCK or OK cells were treated with 1 μg/mL of GTTR, in complete medium, for 2 hours at 37° C. or on ice. (The amount of GTTR is expressed as the weight of the gentamicin moiety within the conjugate.) In competition experiments, MDCK cells were simultaneously treated with unlabeled gentamicin (up to 4 mg/mL) for 2 hours.
Fixation, delipidation, and washing: After treatment, cells were washed three times with complete medium, and then immediately imaged live (see below; FIG. 27A), or fixed. […] Alternatively, cells were fixed in 4% formaldehyde alone (FA), washed and imaged (FIG. 27C), prior to delipidated with 0.5% Triton X-100 in PBS, washed thoroughly, and imaged again (FIG. 27D). […]

OK cells = assay: GTTR uptake, saturability, time and temperature in OK cells; assay type: cell-based, opossum
Method: as §1, §2
Fixation, delipidation, and washing: After treatment, cells were washed three times with complete medium, and then immediately imaged live (see below; FIG. 27A), or fixed. […] Alternatively, cells were fixed in 4% formaldehyde alone (FA), washed and imaged (FIG. 27C), prior to delipidated with 0.5% Triton X-100 in PBS, washed thoroughly, and imaged again (FIG. 27D). Control cells were incubated with hydrolyzed TR (at the same concentration as the TR moiety in the GTTR experiments) and then imaged live, or fixed, delipidated, washed and then imaged.
Both OK and MDCK cells were treated with GTTR at 1 μg/mL in complete culture medium for 2 hours at either 37° C. or over ice. These cells were also treated with a dose range of 0 to 4000 μg/mL of unlabeled GT. Cells were washed and imaged live (as in FIG. 27A), then fixed with FATX, and washed again with PBS prior to re-imaging (as in FIG. 27B). […]
OK cells were treated with 1 μg/mL of GTTR in complete culture medium, at 37° C. or on ice, for increasing time periods. […] (Note that live images were acquired without washing out GTTR from the extracellular medium, so fluorescence is visible outside the cells.) No endosomes were observed on OK cells treated on ice for 2 hours (FIG. 28, B1 inset). […]

[La+3] [La^+++, Lanthanum]
GTTR uptake (MDCK cells [1]): serially decreased
intensity of gentamicin immunofluorescence (unconjugated gentamicin uptake) (MDCK cells [2]): serially decreased

gentamicin [unlabeled GT]
GTTR uptake (quantitative microplate fluorescence) (MDCK kidney cell line): reduced GTTR uptake
GTTR fluorescence in saccular explants [3]: reduced fluorescence in the sensory epithelium
cytoplasmic and nuclear GTTR (MDCK cells [4]; 1 μg/ml GTTR 2 hours, 37° C. or ice, unlabeled GT 0 to 4000 μg/ml): serially reduced the amount of GTTR
cell morphology (MDCK cells [4]; 4 mg/mL gentamicin, 2 hours): flattening of cells
cytoplasmic and nuclear GTTR (OK cells; OK cells, 1 μg/ml GTTR 2 hours, 37° C. or ice, unlabeled GT 0 to 4000 μg/ml): serially reduced the amount of GTTR
cell morphology (OK cells; OK cells, 4 mg/mL gentamicin, 2 hours): flattening of cells
endosomal (vesicular) accumulation of GTTR (OK cells; live cells at 37° C., highest dose of unlabeled GT (4 mg/ml)): not visibly altered
